# Tested on: ascitic form of Gardner lymphosarcoma (IP-LsG)
# Experiment: anti-cancer screening in mice with ascitic Gardner lymphosarcoma
# Format: in vivo
# Details: for weight coefficient (weight loss in comparison with the control group): one week after the start of the therapy
# Protocol: The red colorant isolated under the above-described conditions and having the above-mentioned characteristics was subjected to a screening study for anti-cancer properties.
# The tested substance was administered to mice suffering from the ascitic form of Gardner lymphosarcoma (IP-LsG). 6-(2-(2-hydroxyethyl)aminoethyl)-5,11-dioxo-5,6-dihydro-11H-indeno[1,2-c]isoquinoline hydrochloride having the summary formula C20H18N2O3.HCl was used as a reference substance.
# Female C3H mice weighing 26.1 to 27.3 g were used. The animals were kept in plastic containers and fed with the NOE diet made by RATIO, s.r.o., Breclav, Czech Republic, and with potable water ad libitum. The temperature in the room was maintained, the relative humidity was 60%, and the light regimen was not regulated.
# The Gardner lymphosarcoma is maintained in the ascitic form in the C3H mice by inoculating ascitic cells removed a week after the previous inoculation by puncturing the abdominal cavity. The mice are administered with 0.2 ml of the ascites diluted with an isotonic solution of sodium chloride for injections intraperitoneally 10 to 20 times. The cell material for tests is obtained by puncturing the abdominal cavity on the seventh day following inoculation. For the therapeutic test, the inoculation with the ascites diluted with an isotonic solution of sodium chloride for injections was made by administering 10^7 cells in a volume of 0.2 ml i.p. to each animal.
# The C3H mice were over 6 weeks old, weighing 26.1 to 27.3 g, in groups of 10 animals, the control was-common. Two dosage groups were used for each route of administration and for one substance tested.
# The dosage levels: 200 and 100 mg/kg×5 p.o. and 100 and 50 mg/kg×5 s.c. in a volume 0.2 to 0.4 ml and 0.2 to 0.4 ml p.o. (reference substance), resp. for 20 g body weight. Frequency of administration: 1× daily beginning on the first day. The tested substance was administered in a continuous pattern on the 1st to 5th days in doses given in Table 1 and the reference substance was administered p.o. once on the 1st day.
# After the administration was finished, the animals were left for monitoring the survival time. The dose dependence of the survival time was evaluated in comparison with the non-administered control. Time as a biological response was currently evaluated by means of the non-parametric test according to Hájek (Fabián V.: Základní statistické metody (“Basic Statistical Methods”), NCSAV, Prague 1963).
# After the experiment was complete, time in case of point estimates was evaluated using the test of identity of two means (Student t-test) under the presumption of logarithmic-normal distribution of time values and under the presumption of various unknown variances (Roth Z., Josífko M., Malý V., Trcka V.: Statistické metody v experimentální medicíne (“Statistical Methods in Experimental Medicine”); p. 278, SZN, Prague 1962). Geometrical averages were calculated from the individual values of time to death. The differences In average values in which the value of the test criterion has exceeded the critical value for the significance level of 5% were designated as statistically significant.
# [1] = 100 mg/kg p.o. once on the 1st day
# [2] = 200 mg/kg p.o. once on the 1st day
smiles,measurement,setting,value
"Cl.O=C1c2ccccc2-c2c1c1ccccc1c(=O)n2CCNCCO [reference, 6-(2-(2-hydroxyethyl)aminoethyl)-5,11-dioxo-5,6-dihydro-11H-indeno[1,2-c]isoquinoline hydrochloride]",median of time to death,[1],>48.5 days
same,survival LTS (number of animals surviving on day 65),[1],5/10
same,weight coefficient (weight loss in comparison with the control group),[1],−6.67%
same,median of time to death,[2],>65.0 days
same,survival LTS (number of animals surviving on day 65),[2],10/10
same,weight coefficient (weight loss in comparison with the control group),[2],−14.63%

# Reference: patent US7214713B2, “Antraquinone compositions as anticancer compositions and nutrition supplements and methods of making and using them” (priority 2000, dated 2007)
